# Assay results: patent publication US20070213359A1 (ACADIA Pharmaceuticals Inc., priority 2005, published 2007)
# Like-named read-outs stand apart in the source and are kept apart here.
# Molecular target: Ghrelin receptor (Homo sapiens, UniProt Q92847)
# Assay: Receptor Selection and Amplification Technology (R-SAT) assay
# Type: cell-based
# Set-up: expressed in transfected cells; host or cells: NIH3T3
# Details: for Emax: read-out: RSAT Eff(%)
# [1] = […], '—' not defined (nd used separately), read-out: RSAT pIC50 (converted)
# Chain of Ghrelin receptor (Q92847 whole entry): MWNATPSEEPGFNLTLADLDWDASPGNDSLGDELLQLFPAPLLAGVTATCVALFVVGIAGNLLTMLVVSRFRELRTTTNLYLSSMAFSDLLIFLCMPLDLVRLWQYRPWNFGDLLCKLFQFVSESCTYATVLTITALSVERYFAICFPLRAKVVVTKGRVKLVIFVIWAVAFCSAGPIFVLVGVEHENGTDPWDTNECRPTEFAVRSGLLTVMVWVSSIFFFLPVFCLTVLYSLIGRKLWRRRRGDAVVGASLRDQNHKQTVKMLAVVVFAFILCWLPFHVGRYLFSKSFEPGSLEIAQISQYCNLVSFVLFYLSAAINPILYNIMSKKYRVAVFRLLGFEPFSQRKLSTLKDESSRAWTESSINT
SMILES,IC50 [1],Emax,RSAT Eff(%),IC50 (RSAT pIC50)
COc1cccc2c(C(=O)NCc3cccc(Cl)c3)cn(CCCN3C4CCC3CC(CCc3ccc(Cl)cc3)C4)c12 (stereo not drawn),0.794 nM,127%,,
COc1cccc2c(C(=O)C3CC3)cn(CCCN3CCN(CCOc4ccccc4)CC3)c12,7.94 nM,94%,,
COc1cccc2c(C(=O)Cc3ccccc3)cn(CCCN3CCN(c4ncc(C(F)(F)F)cc4Cl)CC3)c12,7.94 nM,95%,,
COc1cccc2c(C(=O)NCc3cccc(C)c3)cn(CCCN3C4CCC3CC(CCc3ccccc3)C4)c12 (stereo not drawn),10 nM,89%,,
COc1cccc2c(C(=O)NCC(C)C)cn(CCCN3CCC4(CC3)CC(=O)c3ccccc3O4)c12,12.6 nM,115%,,
COc1cccc2c(C(=O)NCC(C)C)cn(CCCN3CCCN(Cc4ccccc4Cl)CC3)c12,15.8 nM,100%,,
COc1cccc2c(C(=O)NCC(C)C)cn(CCCN3C4CCC3CC(CCc3ccccc3)C4)c12 (stereo not drawn),15.8 nM,86%,,
COc1cccc2c(C(=O)c3ccccc3)cn(CCCN3C4CCC3CC(CCc3ccc(Cl)cc3)C4)c12 (stereo not drawn),15.8 nM,94%,,
COc1cccc2c(C(=O)C3CC3)cn(CCCNCCOc3ccccc3)c12,15.8 nM,83%,,
COc1cccc2c(C(=O)NCc3cccc(C)c3)cn(CCCN3CCC(c4nc(-c5ccncc5)no4)CC3)c12,15.8 nM,121%,,
COc1cccc2c(C(=O)NCc3cccc(Cl)c3)cn(CCCN3CCC(c4nc(-c5cccnc5)no4)CC3)c12,20 nM,103%,,
COc1cccc2c(C(=O)NCc3cccc(Cl)c3)cn(CCCN3CCCN(Cc4ccccc4Cl)CC3)c12,20 nM,107%,,
COc1cccc2c(C(=O)C3CC3)cn(CCCN3CCC(c4nc(-c5ccncc5)no4)CC3)c12,20 nM,87%,,
CC(=O)c1cn(CCCN2CCC(N3C(=O)Cc4ccccc43)CC2)c2c(C#N)cccc12,20 nM,,133%,
COc1cccc2c(C(=O)Cc3ccccc3)cn(CCCN3CCC(c4nc(-c5cccnc5)no4)CC3)c12,,88%,,20 nM
COc1cccc2c(C(=O)C3CC3)cn(CCCNC3Cc4ccccc4C3)c12,25.1 nM,97%,,
COc1cccc2c(C(=O)NCc3cccc(C)c3)cn(CCCN3C4CCC3CC(CCc3ccc(Cl)cc3)C4)c12 (stereo not drawn),25.1 nM,77%,,
COc1cccc2c(C(=O)Cc3ccccc3)cn(CCCN3CCC(c4nc(-c5ccncc5)no4)CC3)c12,25.1 nM,137%,,
COc1cccc2c(C(=O)c3ccccc3)cn(CCCN3CCC(c4nc(-c5ccncc5)no4)CC3)c12,25.1 nM,98%,,
COc1cccc2c(C(=O)NCC(C)C)cn(CCCN3CCN(Cc4ccc(Cl)cc4Cl)CC3)c12,25.1 nM,105%,,
COc1cccc2c(C(=O)NCC(C)C)cn(CCCNC3Cc4ccccc4C3)c12,31.6 nM,102%,,
COc1cccc2c(C(=O)C3CC3)cn(CCCN3CCC(N4C(=O)Cc5ccccc54)CC3)c12,39.8 nM,,110%,
CC(=O)c1cn(CCCN2CCC(N3C(=O)Cc4ccccc43)CC2)c2c(Br)cccc12,100 nM,,60%,
CCc1cccc2c(C(C)=O)cn(CCCN3CCC(N4C(=O)Cc5ccccc54)CC3)c12,100 nM,,147%,
COc1cccc2c(C(C)=O)cn(CCCN3CCC(C#N)(c4ccccc4)CC3)c12,,101%,,200 nM
COc1cccc2c(C(=O)NCc3cccc(C)c3)cn(CCCN3CCC(N4C(=O)Cc5ccccc54)CC3)c12,2000 nM,,43%,
CC(=O)c1cn(CCCN2CCC(N3C(=O)Cc4ccccc43)CC2)c2c(C)cccc12,12600 nM,,69%,
CC(=O)c1cn(CCCN2CCC(N3C(=O)Cc4ccccc43)CC2)c2c(Cl)cccc12,,,28%,
CC(=O)c1c(C)n(CCCN2CCC(N3C(=O)Cc4ccccc43)CC2)c2c(Br)cccc12,,,12%,
COc1cccc2c(C#N)cn(CCCN3CCC(N4C(=O)Cc5ccccc54)CC3)c12,,,33%,
